Data taken from patent US9629364B2, “Synergistic weed control from applications of aminopyralid and clopyralid” (Dow AgroSciences LLC, priority 2012, dated 2017).
Structures can show the parent of a compound that is named as a salt.

Tested on: black nightshade (Solanam nigram)
Test: Field trial, post-emergence foliar application, weed control rating 0-100%
Format: in vivo
Conditions: SOLNI, 56 days after first application, with 0.5 L/ha ACTIROB
From the text: The (a) aminopyralid or an agriculturally acceptable salt or ester thereof is mixed with or applied in combination with (b) clopyralid or an agriculturally acceptable salt or ester thereof in an amount sufficient to induce a synergistic herbicidal effect. […] As described in the Herbicide Handbook of the Weed Science Society of America, Ninth Edition, 2007, p. 429, “‘synergism’ [is] an interaction of two or more factors such that the effect when combined is greater than the predicted effect based on the response to each factor applied separately.” Synergistic in the herbicide context can mean that the use of (a) and (b) as defined above results in an increased weed control effect compared to the weed control effects that are possible with the use of (a) or (b) alone. In some embodiments, the damage or injury to the undesired vegetation caused by the compositions and methods disclosed herein is evaluated using a scale from 0% to 100%, when compared with the untreated control vegetation, wherein 0% indicates no damage to the undesired vegetation and 100% indicates complete destruction of the undesired vegetation. […] 22 (1967) […]
Colby's equation was used to determine the herbicidal effects expected from the mixtures, as described above. The results were measured at 56 days after the first application of the compositions. […]

SMILES	Mean % weed control (1 g ae/ha applied alone)	Mean % weed control (90 g ae/ha applied alone)
Nc1cc(Cl)nc(C(=O)O)c1Cl [Aminopyralid Potassium Salt, 4-amino-3,6-dichloro-2-pyridinecarboxylic acid]	0%	–
O=C(O)c1nc(Cl)ccc1Cl [Clopyralid-olamine, 3,6-dichloro-2-pyridinecarboxylic acid]	–	37.5%
